Earlier results on two molecules are cited in patent US5008256A, “Salts of ranitidine and complexes of bismuth with carboxylic acids, and pharmaceutical compositions thereof” (Glaxo Group Limited, priority 1988, dated 1991).

The test system of one data set is Campylobacter pylori. The note with it: background; in words.
Another data set has as its system histamine H2 receptor. The note with it: background; in words.

Each structure is given as a SMILES string.

Take `O=C([O-])CC(O)(CC(=O)[O-])C(=O)[O-].O=C([O-])CC(O)(CC(=O)[O-])C(=O)[O-].[Bi+3].[K+].[K+].[K+]` [bismuth subcitrate, tripotassium dicitrato bismuthate]: in the data set on Campylobacter pylori, the “susceptibility of Campylobacter pylori” value is “susceptible”.

Regarding `CNC(=C[N+](=O)[O-])NCCSCc1ccc(CN(C)C)o1` [Ranitidine, N-[2-[[[5-[(dimethylamino)-methyl]-2-furanyl]methyl]thio]ethyl]-N'-methyl-2-nitro-1,1-ethenediamine], the “histamine H2-antagonist activity” value with histamine H2 receptor is on record as “potent histamine H2 -antagonist”.
